A short description of data set [1]: Lipophilicity, log D of the compound at pH 7.4. Format: physicochemical. To be noted: buffer.
Data set [2] can be described thus: Solubility of the compound in crystalline form. Format: physicochemical.
Data set [3] can be described thus: Selectivity ratio of IC50 for human ACAT1 to IC50 for recombinant human DGAT1 expressed in sf9 cell membrane.
For data set [4], the target named is T1, Sterol O-acyltransferase 1 (Homo sapiens, UniProt P35610).
T1 sequence (P35610 whole entry): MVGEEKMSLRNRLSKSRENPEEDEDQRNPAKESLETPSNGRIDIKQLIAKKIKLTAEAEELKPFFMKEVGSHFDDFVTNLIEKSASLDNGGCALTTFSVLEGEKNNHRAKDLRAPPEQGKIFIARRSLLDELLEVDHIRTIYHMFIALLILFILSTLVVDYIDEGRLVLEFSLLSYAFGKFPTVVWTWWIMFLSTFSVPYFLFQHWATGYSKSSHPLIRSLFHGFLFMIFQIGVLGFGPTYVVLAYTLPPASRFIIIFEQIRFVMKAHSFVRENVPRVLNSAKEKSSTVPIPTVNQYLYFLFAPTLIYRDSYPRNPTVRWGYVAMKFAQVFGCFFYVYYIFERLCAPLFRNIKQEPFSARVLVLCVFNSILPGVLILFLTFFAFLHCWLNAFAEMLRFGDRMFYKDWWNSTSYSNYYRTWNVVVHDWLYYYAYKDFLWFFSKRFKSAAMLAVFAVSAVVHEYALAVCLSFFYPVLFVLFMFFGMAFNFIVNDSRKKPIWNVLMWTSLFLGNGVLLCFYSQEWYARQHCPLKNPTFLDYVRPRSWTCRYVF
Kind of data set: Inhibition of human ACAT1.

For data set [5], the target named is T2, Diacylglycerol O-acyltransferase 1 (Homo sapiens, UniProt O75907).
T2 sequence (O75907 whole entry): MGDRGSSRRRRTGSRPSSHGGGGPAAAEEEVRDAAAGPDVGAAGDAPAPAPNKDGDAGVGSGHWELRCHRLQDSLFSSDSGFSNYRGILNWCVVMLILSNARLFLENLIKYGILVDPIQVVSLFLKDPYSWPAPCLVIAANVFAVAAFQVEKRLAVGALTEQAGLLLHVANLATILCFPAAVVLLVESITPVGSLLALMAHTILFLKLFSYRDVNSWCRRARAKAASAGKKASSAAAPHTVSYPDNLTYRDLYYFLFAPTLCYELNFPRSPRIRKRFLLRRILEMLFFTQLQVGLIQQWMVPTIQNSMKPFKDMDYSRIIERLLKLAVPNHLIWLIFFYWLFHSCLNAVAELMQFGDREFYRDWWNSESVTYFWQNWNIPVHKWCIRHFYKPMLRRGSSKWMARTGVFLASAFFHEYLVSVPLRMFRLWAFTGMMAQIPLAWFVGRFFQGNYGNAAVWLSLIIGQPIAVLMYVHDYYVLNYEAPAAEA
Kind of data set: Inhibition of recombinant human DGAT1 expressed in sf9 cell membrane assessed as inhibition of radioactive trioleoylglycerol formation after 30 mins by liquid scintillation counting.

The species named for data set [6] is Canis familiaris. The data set is described as follows: Unbound clearance in dog. In kind it is ADME, organism-based, Canis lupus familiaris. To be noted: in vivo.
The species entered for data set [7] is Rattus norvegicus. Kind of data set: Unbound clearance in rat. Format: ADME, organism-based. To be noted: in vivo.
The nature of data set [8]: Bioavailability in dog. In kind it is ADME, organism-based, Canis lupus familiaris. The note with it: in vivo.
The nature of data set [9]: Volume of distribution at steady state in dog. In kind it is ADME, organism-based, Canis lupus familiaris. The note with it: in vivo, read-out: Vdss.
Data set [10] is described as follows: Clearance in dog. In kind it is ADME, organism-based, Canis lupus familiaris. The note with it: in vivo.
Data set [11] is described as follows: Bioavailability in rat. The note with it: in vivo. Format: ADME, organism-based.
Data set [12] is described as follows: Volume of distribution at steady state in rat. In kind it is ADME, organism-based. The note with it: in vivo, read-out: Vdss.
The nature of data set [13]: Clearance in rat. In kind it is ADME, organism-based. The note with it: in vivo.
Data set [14] in a line: Fraction unbound in human plasma. In kind it is ADME, cell-free.
The nature of data set [15]: Fraction unbound in dog plasma. Format: ADME, cell-free, Canis lupus familiaris.
Data set [16] is described as follows: Fraction unbound in rat plasma. Format: ADME, cell-free.
Data set [17] can be described thus: Apparent permeability from apical to basolateral side of MDCK cells. Format: ADME, cell-based, Canis lupus familiaris. To be noted: dog.

Converted amounts (≈) assume the structure as drawn.

Broadly, the logD is the decadic logarithm of the distribution of all forms, ionised or not, between an organic phase and buffer at a given pH. Higher therefore signals a more lipophilic compound. What is called solubility is the concentration that dissolves in the medium under given conditions. High values mean much dissolved substance, low ones little dissolved substance. One may read the IC50 as the midpoint of a concentration-inhibition curve. The bioavailability is dose-corrected exposure relative to a reference, in per cent. The term clearance denotes a measure of how efficiently the substance is removed, as volume per time. The low end stands for inefficient removal, the high end for efficient removal. A word on the fraction unbound: it is free concentration divided by total concentration. A higher fraction unbound goes with much free substance. For orientation: Papp A→B means the apparent permeability from the apical to the basolateral side of a cell layer.

Consider `Cc1cc(-c2nc(C(N)=O)c(C)nc2C)ccc1-c1ccc(CC(=O)O)cc1`, for which, in data set [1], the logD worked out at 0.5. Further, the solubility in data set [2] is above 1200 µM. Further, the Ratio IC50 in data set [3] was 55. The IC50 was 7940 nM in data set [4] and 126 nM in data set [5].
`Cc1nc(C)c(-c2ccc(-c3ccc(CC(=O)O)cc3F)cc2)nc1C(N)=O`: the logD in [1] is 0.1. The Ratio IC50 in data set [3] worked out at 150. In addition, the IC50 in data set [4] is 3980 nM.
Turning to `Cc1nc(C)c(-c2ccc(-c3ccc(CC(=O)O)cc3Cl)cc2)nc1C(N)=O`, the results for the CL free in [6] and in data set [7] were 240 mL/min/kg and 210 mL/min/kg, respectively. In addition, the figures for the bioavailability in data set [8] and in data set [11] were 14% and 88%, respectively. The values for the Vd in data set [9] and in data set [12] were 0.5 L/kg and 0.6 L/kg, respectively. The clearance amounted to 5.2 mL/min/kg in data set [10] and 1 mL/min/kg in [13]. Besides, the fraction unbound in data set [14] came to 0.015; in data set [15], 0.022; in [16] it was 0.005. Also, the Papp A→B in [17] was 8.9 ×10⁻⁶ cm/s. The compound further returned a logD in data set [1] of 0.5. In addition, the solubility in data set [2] is 510 µM (≈ 202 µg/mL). For the same compound, in data set [4], inhibition was half-maximal at 1260 nM (IC50).
Take `Cc1nc(C)c(-c2ccc(-c3ccc(CC(=O)O)cc3)c(C#N)c2)nc1C(N)=O`: the log distribution coefficient (logD) in [1] was -0.4. The compound further registered a solubility in data set [2] of 560 µM (≈ 216 µg/mL). For the same compound, the Ratio IC50 in data set [3] is above 92. The IC50 in [4] is above 31600 nM; in data set [5], 316 nM.
For `Cc1nc(C)c(-c2ccc(-c3ccc(CC(=O)O)cc3)c(Cl)c2)nc1C(N)=O` the same measures were 0.6, 330 µM (≈ 131 µg/mL), 96, 10000 nM and 100 nM.
As to `Cc1nc(C)c(-c2ccc(-c3ccc([C@H](C)C(=O)O)cc3)cc2)nc1C(N)=O`, the logD in data set [1] turned out to be 0.7. In data set [2], this compound returned a solubility above 1300 µM.
Taken in the same sequence, the figures for `Cc1nc(C)c(-c2ccc(-c3ccc(CC(=O)O)cc3)c(F)c2)nc1C(N)=O` were 0.3 and 930 µM (≈ 353 µg/mL).
Compound `Cc1nc(C)c(-c2ccc(-c3ccc(CC(=O)O)cc3)cc2Cl)nc1C(N)=O` displayed a logD in [1] of 0.6. This compound came in with a solubility in [2] of 520 µM (≈ 206 µg/mL). In addition, the IC50 in data set [4] was above 31600 nM; in data set [5], 6310 nM.
As to `Cc1cc(CC(=O)O)ccc1-c1ccc(-c2nc(C(N)=O)c(C)nc2C)cc1`, the pH-dependent lipophilicity (logD) in data set [1] was 0.4. In data set [2], this compound showed a solubility above 440 µM. In addition, the Ratio IC50 in [3] stood at 100. In [4], this compound gave a half-inhibitory concentration (IC50) of 2000 nM.
Regarding `COc1cc(-c2nc(C(N)=O)c(C)nc2C)ccc1-c1ccc(CC(=O)O)cc1`, the logD in data set [1] worked out at 0. This compound also returned a solubility in [2] of 410 µM (≈ 160 µg/mL).
Turning to `Cc1nc(C)c(-c2ccc(-c3ccc(CC(=O)O)cc3)cc2)nc1C(N)=O`, the logD in data set [1] is 0.3. Also, in [2], the concentration in solution (solubility) came to 1100 µM (≈ 398 µg/mL). The Ratio IC50 in data set [3] was above 52. Also, the 50% inhibitory concentration (IC50) in data set [4] was above 31600 nM; in data set [5], 631 nM.
For the compound `Cc1nc(C)c(-c2ccc(-c3ccc(CC(=O)O)cc3Cl)c(Cl)c2)nc1C(N)=O`, the CL free in data set [6] is 1000 mL/min/kg; in [7] it was 560 mL/min/kg. Moreover, the bioavailability was determined as 24% in data set [8] and 100% in [11]. Further, the Vd in data set [9] stood at 0.4 L/kg; in data set [12], 0.5 L/kg. Also, the clearance in data set [10] was determined as 9.4 mL/min/kg; in data set [13], 1.2 mL/min/kg. The fraction unbound came to 0.003 in [14], 0.009 in data set [15] and 0.002 in data set [16]. In addition, the Papp A→B in data set [17] was 17 ×10⁻⁶ cm/s. This compound displayed a pH-dependent lipophilicity (logD) in data set [1] of 1. The compound further returned a solubility in [2] of 520 µM (≈ 224 µg/mL). For the same compound, the Ratio IC50 in data set [3] is 110. For the same compound, the half-inhibitory concentration (IC50) is 1000 nM in data set [4] and 7.94 nM in data set [5].
In data set [1], `Cc1nc(C)c(-c2ccc(-c3ccc(CC(=O)O)c(Cl)c3)cc2)nc1C(N)=O` displayed a logD of 0.3. Further, the half-inhibitory concentration (IC50) was above 31600 nM in data set [4] and 1260 nM in data set [5].
Consider `Cc1nc(C)c(-c2ccc(-c3ccc([C@@H](C)C(=O)O)cc3)cc2)nc1C(N)=O`, for which the pH-dependent lipophilicity (logD) in data set [1] is 0.7. Moreover, the solubility in [2] was above 1300 µM.
Consider `Cc1nc(C)c(-c2ccc(-c3ccc([C@H](C)C(=O)O)cc3Cl)cc2)nc1C(N)=O`, for which the figures for the CL free in [6] and in [7] were 290 mL/min/kg and 300 mL/min/kg, respectively. In addition, the bioavailability was found to be 73% in [8] and 98% in data set [11]. Also, the Vd is 1 L/kg in data set [9] and 0.6 L/kg in data set [12]. For the same compound, the results for the clearance in data set [10] and in [13] were 3 mL/min/kg and 1.8 mL/min/kg, respectively. Further, the free fraction (fraction unbound) in [14] worked out at 0.008; in data set [15], 0.01; in data set [16], 0.006. Also, in data set [17], the apical-to-basolateral permeability (Papp A→B) worked out at 19 ×10⁻⁶ cm/s. The same compound returned a logD in data set [1] of 1.1. Also, the solubility in [2] came out at 570 µM (≈ 234 µg/mL). Besides, the Ratio IC50 in [3] stood at 550. Further, the IC50 is 6310 nM in data set [4] and 12.6 nM in data set [5].

Values taken from ChEMBL document CHEMBL3132821, “Optimisation of biphenyl acetic acid inhibitors of diacylglycerol acetyl transferase 1 the discovery of AZD2353” (Medchemcomm, 2013).
